In ChEMBL document CHEMBL4304757, “Synthetic heterocyclic candidates as promising α-glucosidase inhibitors: An overview” (Eur J Med Chem, 2019):

Key:
[1] = Inhibition of yeast alpha-glucosidase using p-nitrophenyl-alpha-d-glucopyranoside as substrate preincubated for 10 mins followed by substrate addition measured after 30 mins; set-up: species or system Saccharomyces cerevisiae
Alpha glucosidase = Alpha glucosidase (Homo sapiens, UniProt O43451+P10253+P14410+Q2M2H8); test: Inhibition of alpha-glucosidase (unknown origin); assay type: protein assay

Row | Compound | IC50 (Alpha glucosidase) | other results
1 | COc1ccc(/C=N/NC(=O)c2ccc(-c3nc4cc(C)c(C)cc4[nH]3)cc2)c(O)c1 | – | IC50 [1]: 8.4 to 9.9 µM
2 | O=[N+]([O-])c1cccc(-c2nn(-c3ccccc3)cc2-c2nc(-c3ccccc3)c(-c3ccccc3)[nH]2)c1 | – | IC50 [1]: 2.7 to 23 µM
3 | Cc1cc2nc(-c3ccc(C(=O)NNC(=S)Nc4ccc(Cl)c(Cl)c4)cc3)[nH]c2cc1C | – | IC50 [1]: 35 to 297 µM
4 | Cc1cccc(NC(=S)NNC(=O)c2ccc(-c3nc4cc(C)c(C)cc4[nH]3)cc2)c1 | – | IC50 [1]: 35 to 297 µM
5 | Cc1cc2nc(-c3ccc(C(=O)N/N=C/c4ccncc4)cc3)[nH]c2cc1C | – | IC50 [1]: 8.4 to 179 µM
6 | O=C(C[C@@H](c1ccc(Cl)cc1)c1c[nH]c2ccccc12)c1ccc2ccccc2c1 | 4.3 to 43 µM | –
7 | N#Cc1ccc2[nH]cc(C(c3ccc(-c4nnc(-c5c[nH]c6ccccc56)o4)cc3)c3c[nH]c4ccc(C#N)cc34)c2c1 | 20 to 292 µM | –
8 | Cc1cc2nc(-c3ccc(C(=O)NNC(=S)Nc4ccccc4Cl)cc3)[nH]c2cc1C | – | IC50 [1]: 35 to 297 µM
9 | Cc1ccc(/C=N/NC(=O)c2ccc(-c3nc4cc(C)c(C)cc4[nH]3)cc2)cc1 | – | IC50 [1]: 8.4 to 179 µM
10 | Cc1ccc([C@H](CC(=O)c2ccccc2)c2c[nH]c3ccccc23)cc1 | 4.3 to 43 µM | –
11 | Cn1cc(-c2nnc(-c3ccc(C(c4c[nH]c5ccc(Cl)cc45)c4c[nH]c5ccc(Cl)cc45)cc3)o2)c2ccccc21 | 20 to 292 µM | –
12 | Cc1[nH]c2ccccc2c1-c1nnc(-c2ccc(C(c3c(C)n(C)c4ccccc34)c3c(C)n(C)c4ccccc34)cc2)o1 | 20 to 292 µM | –
13 | Cc1cc(C)cc(-n2c(-c3cn(-c4ccccc4)nc3-c3cc4cc(Br)ccc4oc3=O)nc(-c3ccccc3)c2-c2ccccc2)c1 | – | IC50 [1]: 2.5 to 46 µM
14 | Cc1ccccc1NC(=O)Cn1cc(Cn2c(-c3ccc(Br)cc3)nc(-c3ccccc3)c2-c2ccccc2)nn1 | 15 to 48 µM | –
15 | Cc1nn(-c2ccc([N+](=O)[O-])cc2)c(C)c1-c1nc(-c2ccccc2)c(-c2ccccc2)[nH]1 | – | IC50 [1]: 2.7 to 23 µM
16 | COc1ccc(/C=N/NC(=O)c2ccc(-c3nc4cc(C)c(C)cc4[nH]3)cc2)cc1 | – | IC50 [1]: 8.4 to 179 µM
17 | O=C(Cc1ccc(Cl)c(Cl)c1)N/N=C1\C(=O)Nc2cc(Br)ccc21 | 2.2 to 83 µM | –
18 | Clc1ccc2[nH]cc(C(c3ccc(-c4nnc(-c5c[nH]c6ccccc56)o4)cc3)c3c[nH]c4ccc(Cl)cc34)c2c1 | 20 to 292 µM | –
19 | Cc1cc2nc(-c3ccc(C(=O)NNC(=S)Nc4cccc(Br)c4)cc3)[nH]c2cc1C | – | IC50 [1]: 35 to 297 µM
20 | Cc1ccccc1NC(=O)Cn1cc(Cn2c(-c3cccc(F)c3)nc(-c3ccccc3)c2-c2ccccc2)nn1 | 15 to 48 µM | –
21 | COc1ccc([C@H](CC(=O)c2ccccc2)c2c[nH]c3ccccc23)cc1 | 4.3 to 43 µM | –

Row | Compound | IC50 (Alpha glucosidase) | other results
22 | c1ccc(-c2nn(-c3ccccc3)cc2-c2nc(-c3ccccc3)c(-c3ccccc3)[nH]2)cc1 | – | IC50 [1]: 2.7 to 23 µM
23 | O=C(Cc1ccc(Cl)cc1Cl)N/N=C1\C(=O)Nc2cc(Br)ccc21 | 2.2 µM | –
24 | Cc1cc2nc(-c3ccc(C(=O)N/N=C/c4ccco4)cc3)[nH]c2cc1C | – | IC50 [1]: 8.4 to 179 µM
25 | O=C1Nc2cc(Cl)ccc2/C1=C/c1ccc(-c2nnc(-c3cc(O)cc(O)c3)o2)cc1 | 1.2 µM | –
26 | COc1ccc(/C=N/NC(=O)c2ccc(-c3nc4cc(C)c(C)cc4[nH]3)cc2)cc1OC | – | IC50 [1]: 8.4 to 179 µM
27 | COc1ccc(O)c(/C=N/NC(=O)c2ccc(-c3nc4cc(C)c(C)cc4[nH]3)cc2)c1 | – | IC50 [1]: 8.4 to 9.9 µM
28 | O=C(Cn1cc(Cn2c(-c3ccc(F)cc3)nc(-c3ccccc3)c2-c2ccccc2)nn1)Nc1ccc(Cl)cc1Cl | 15 to 48 µM | –
29 | Cc1ccc(C(=O)N/N=C2\C(=O)Nc3ccc(Cl)cc32)cc1 | 2.2 to 83 µM | –
30 | Cc1cc2nc(-c3ccc(C(=O)NNC(=S)Nc4cccc([N+](=O)[O-])c4)cc3)[nH]c2cc1C | – | IC50 [1]: 35 to 297 µM
31 | c1ccc(-c2ccc(-c3nn(-c4ccccc4)cc3-c3nc(-c4ccccc4)c(-c4ccccc4)[nH]3)cc2)cc1 | – | IC50 [1]: 2.7 to 23 µM
32 | c1ccc2c(-c3nnc(-c4ccc(C(c5c[nH]c6ccccc56)c5c[nH]c6ccccc56)cc4)o3)c[nH]c2c1 | 20 to 292 µM | –
33 | CCOc1ccc(NC(=O)Cn2cc(Cn3c(-c4ccc(C(=O)OC)cc4)nc(-c4ccccc4)c3-c3ccccc3)nn2)cc1 | 15 to 48 µM | –
34 | Cn1cc(-c2nnc(-c3ccc(C(c4c[nH]c5ccccc45)c4c[nH]c5ccc(Cl)cc45)cc3)o2)c2ccccc21 (stereo not given) | 2 µM | –
35 | COc1cccc(/C=N/NC(=O)c2ccc(-c3nc4cc(C)c(C)cc4[nH]3)cc2)c1 | – | IC50 [1]: 8.4 to 179 µM
36 | Cc1cc2nc(-c3ccc(C(=O)NNC(=S)Nc4ccc(Br)cc4)cc3)[nH]c2cc1C | – | IC50 [1]: 35 to 297 µM
37 | O=c1oc2ccccc2cc1-c1nn(-c2ccccc2)cc1-c1nc(-c2ccccc2)c(-c2ccccc2)n1-c1ccc(Br)cc1 | – | IC50 [1]: 2.5 to 46 µM
38 | O=C(C[C@@H](c1cccs1)c1c[nH]c2ccccc12)c1ccc2ccccc2c1 | 4.3 to 43 µM | –
39 | O=C(Cn1cc(Cn2c(-c3ccc(Br)cc3)nc(-c3ccccc3)c2-c2ccccc2)nn1)Nc1ccc(F)cc1 | 15 to 48 µM | –
40 | COc1cccc(NC(=S)NNC(=O)c2ccc(-c3nc4cc(C)c(C)cc4[nH]3)cc2)c1 | – | IC50 [1]: 35 to 297 µM
41 | Cc1ccc(NC(=S)NNC(=O)c2ccc(-c3nc4cc(C)c(C)cc4[nH]3)cc2)cc1 | – | IC50 [1]: 35 to 297 µM
42 | Cc1cc2nc(-c3ccc(C(=O)NNC(=S)Nc4ccc([N+](=O)[O-])cc4)cc3)[nH]c2cc1C | – | IC50 [1]: 35 µM

Row | Compound | IC50 (Alpha glucosidase) | other results
43 | CCOc1ccccc1NC(=O)Cn1cc(Cn2c(-c3cccc(Br)c3)nc(-c3ccccc3)c2-c2ccccc2)nn1 | 15 µM | Ki (Alpha glucosidase): 14 µM
44 | O=C(C[C@@H](c1cccs1)c1c[nH]c2ccccc12)c1ccccc1 | 4.3 to 43 µM | –
45 | CCCN1C(=O)/C(=N\NC(=O)Cc2ccc(Cl)cc2Cl)c2ccccc21 | 2.2 to 83 µM | –
46 | COc1ccc(Cc2nnc(-c3ccc(Cl)cc3)n2CC(=O)NNC(=S)Nc2ccc(Cl)cc2)cc1 | 3.4 µM | –
47 | O=C(C[C@@H](c1cccc(Br)c1)c1c[nH]c2ccccc12)c1ccccc1 | 4.3 to 43 µM | –
48 | COC(=O)CC(C)=O | 19 to 25 µM | –
49 | Cc1ccc([C@H](CC(=O)c2ccc3ccccc3c2)c2c[nH]c3ccccc23)cc1 | 4.3 to 43 µM | –
50 | Cc1[nH]c2ccccc2c1-c1nnc(-c2ccc(C(c3c[nH]c4ccc(Cl)cc34)c3c[nH]c4ccc(Cl)cc34)cc2)o1 | 20 to 292 µM | –
51 | Cn1cc(C(c2ccc(-c3nnc(-c4c[nH]c5ccccc45)o3)cc2)c2cn(C)c3ccccc23)c2ccccc21 | 20 to 292 µM | –
52 | COc1ccc(-c2nc(-c3ccccc3)c(-c3ccccc3)n2Cc2cn(CC(=O)Nc3ccc(Cl)cc3Cl)nn2)cc1OC | 15 to 48 µM | –
53 | Cn1cc(-c2nnc(-c3ccc(C(c4cn(C)c5ccccc45)c4cn(C)c5ccccc45)cc3)o2)c2ccccc21 | 20 to 292 µM | –
54 | O=C(C[C@@H](c1ccccc1)c1c[nH]c2ccccc12)c1ccc2ccccc2c1 | 4.3 to 43 µM | –
55 | O=C1CSC(=O)N1 [THIAZOLIDINEDIONE] | 0.54 to 2.2 µM | –
56 | COc1ccc(NC(=O)Cn2cc(Cn3c(-c4cccc(Cl)c4)nc(-c4ccccc4)c3-c3ccccc3)nn2)cc1 | 15 to 48 µM | –
57 | CCOc1ccccc1NC(=O)Cn1cc(Cn2c(-c3ccccc3F)nc(-c3ccccc3)c2-c2ccccc2)nn1 | 15 to 48 µM | –
58 | Cc1[nH]c2ccccc2c1-c1nnc(-c2ccc(C(c3c[nH]c4ccccc34)c3c[nH]c4ccccc34)cc2)o1 | 20 to 292 µM | –
59 | COc1ccc(Cc2nnc(-c3ccc(Cl)cc3)n2Cc2nn(CN3CCN(C)CC3)c(=S)o2)cc1 | 4.3 µM | –
60 | O=C(C[C@@H](c1cccc([N+](=O)[O-])c1)c1c[nH]c2ccccc12)c1ccccc1 | 4.3 to 43 µM | –
61 | Cc1[nH]c2ccccc2c1-c1nnc(-c2ccc(C(c3c(-c4ccccc4)[nH]c4ccccc34)c3c(-c4ccccc4)[nH]c4ccccc34)cc2)o1 | 20 to 292 µM | –
62 | COc1ccc(NC(=O)Cn2cc(Cn3c(-c4cccs4)nc(-c4ccccc4)c3-c3ccccc3)nn2)cc1 | 15 to 48 µM | –
63 | Cc1ccc(NC(=O)Cn2cc(Cn3c(-c4cccc(Cl)c4)nc(-c4ccccc4)c3-c3ccccc3)nn2)c(C)c1 | 15 to 48 µM | –

Row | Compound | IC50 (Alpha glucosidase) | other results
64 | Cc1c(C(c2ccc(-c3nnc(-c4c[nH]c5ccccc45)o3)cc2)c2c(C)n(C)c3ccccc23)c2ccccc2n1C | 20 to 292 µM | –
65 | COC(=O)c1ccc(-c2nc(-c3ccccc3)c(-c3ccccc3)n2Cc2cn(CC(=O)Nc3cc(Cl)ccc3Cl)nn2)cc1 | 15 to 48 µM | –
66 | O=C(C[C@@H](c1ccc(Br)cc1)c1c[nH]c2ccccc12)c1ccccc1 | 4.3 to 43 µM | –
67 | O=C1NC(=O)/C(=C/c2ccc(-c3nc4ccccc4n3Cc3ccc(Cl)cc3)cc2)S1 | 0.54 µM | –
68 | Cc1cccc([C@H](CC(=O)c2ccccc2)c2c[nH]c3ccccc23)c1 | 4.3 to 43 µM | –
69 | O=C(C[C@@H](c1ccc(Cl)cc1Cl)c1c[nH]c2ccccc12)c1ccccc1 | 4.3 to 43 µM | –
70 | Cn1cc(-c2nnc(-c3ccc(C(c4c[nH]c5ccccc45)c4c[nH]c5ccccc45)cc3)o2)c2ccccc21 | 20 to 292 µM | –
71 | CCCCCCCCCCCC(=O)N/N=C1\C(=O)Nc2ccccc21 | 2.2 to 83 µM | –
72 | CCn1c2ccccc2c2cc(NC(=O)CSc3nc4ccccc4[nH]3)ccc21 | 0.17 µM | –
73 | Cn1cc(-c2nnc(-c3ccc(C(c4c(-c5ccccc5)[nH]c5ccccc45)c4c(-c5ccccc5)[nH]c5ccccc45)cc3)o2)c2ccccc21 | 20 to 292 µM | –
74 | COc1ccc([C@H](CC(=O)c2ccc3ccccc3c2)c2c[nH]c3ccccc23)cc1 | 4.3 to 43 µM | –
75 | c1ccc(-c2[nH]c3ccccc3c2C(c2ccc(-c3nnc(-c4c[nH]c5ccccc45)o3)cc2)c2c(-c3ccccc3)[nH]c3ccccc23)cc1 | 20 to 292 µM | –
76 | O=C(C[C@@H](c1c(Cl)cccc1Cl)c1c[nH]c2ccccc12)c1ccccc1 | 4.3 µM | –
77 | COc1ccccc1-c1nc(-c2ccccc2)c(-c2ccccc2)n1Cc1cn(CC(=O)Nc2ccc(C)cc2)nn1 | 15 to 48 µM | –
78 | O=C1Nc2cc(Br)ccc2/C1=N/NC(=O)c1ccccc1O | 2.2 to 83 µM | –
79 | O=C(C[C@@H](c1ccccc1)c1c[nH]c2ccccc12)c1ccccc1 | 4.3 to 43 µM | –
80 | Cc1[nH]c2ccccc2c1-c1nnc(-c2ccc(C(c3c[nH]c4ccc(C#N)cc34)c3c[nH]c4ccc(C#N)cc34)cc2)o1 | 20 to 292 µM | –
81 | Cc1ccc(NC(=O)Cn2cc(Cn3c(-c4cccc(F)c4)nc(-c4ccccc4)c3-c3ccccc3)nn2)c(C)c1 | 15 to 48 µM | –
82 | Cn1cc(-c2nnc(-c3ccc(C(c4c[nH]c5ccc(C#N)cc45)c4c[nH]c5ccc(C#N)cc45)cc3)o2)c2ccccc21 | 20 to 292 µM | –
83 | Cc1[nH]c2ccccc2c1-c1nnc(-c2ccc(C(c3c[nH]c4ccc(Br)cc34)c3c[nH]c4ccc(Br)cc34)cc2)o1 | 20 to 292 µM | –
84 | CCOc1ccc(NC(=O)Cn2cc(Cn3c(-c4cccc(Cl)c4)nc(-c4ccccc4)c3-c3ccccc3)nn2)cc1 | 15 to 48 µM | –
